For 18 compounds, Ki, LAD and ED20 results are on record in ChEMBL document CHEMBL1123411, “Ribose-modified adenosine analogues as adenosine receptor agonists” (J Med Chem, 1986).

One assay addresses T1, Adenosine receptor A1 (Rattus norvegicus, UniProt P25099).
T1 sequence (P25099 whole entry): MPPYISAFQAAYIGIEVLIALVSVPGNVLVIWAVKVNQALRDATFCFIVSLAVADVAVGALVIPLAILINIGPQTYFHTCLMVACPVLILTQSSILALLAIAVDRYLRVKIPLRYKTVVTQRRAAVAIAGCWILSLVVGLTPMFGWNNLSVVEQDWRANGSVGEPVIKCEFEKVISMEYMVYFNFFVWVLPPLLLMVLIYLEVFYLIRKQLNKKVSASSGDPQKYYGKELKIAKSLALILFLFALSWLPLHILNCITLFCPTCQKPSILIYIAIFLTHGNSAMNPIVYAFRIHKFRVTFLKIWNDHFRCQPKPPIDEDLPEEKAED
Put plainly: Binding affinity for adenosine A1 receptor in rat brain membranes using [3H]CHA as radioligand. The assay is classed as cell membranes.

For assay [1], the species on record is Mus musculus. Description: CNS activity measured using screen test failure. Type of assay: functional.
The species entered for assay [2] is Mus musculus. Put plainly: Dose required to inhibit mouse locomotor activity by 60%. The assay is classed as functional.
Assay [3] is filed under the species Rattus norvegicus. Description: Cardiovascular activity (as 20% decrease in blood pressure). Type of assay: functional.
Assay [4] is filed under the species Rattus norvegicus. Put plainly: Cardiovascular activity (as 20% decrease in rate). The assay is classed as functional.
The next assay addresses Adenosine A2 receptor (Rattus norvegicus, UniProt P29276+P30543).
Assay [5] is filed under the species Rattus norvegicus. Put plainly: Compound was evaluated for Cardiovascular activity (as 20% decrease in rate) in rats. The assay is classed as functional. Particulars: Heart.

Structures are written as SMILES. Bounds are passed on as bounds.

Description for Adenosine A2 receptor: Binding affinity for adenosine A2 receptor in rat striatal membranes using [3H]NECA as radioligand

By Ki is commonly meant the dissociation constant of the complex between target and ligand, obtained from inhibition or displacement. Higher therefore signals lower affinity. In the case of `C[C@H](Cc1ccccc1)Nc1ncnc2c1ncn2C1CCCC(O)C1O` (stereo not given in full), the results for the Ki at Adenosine receptor A1 and on Adenosine A2 receptor were 15 µM and greater than 10 µM, respectively. The LAD in the assay listed under Mus musculus [1] and in the assay listed under Mus musculus [2] was greater than 100 mg/kg in each case. Also, the ED20 in the assay listed under Rattus norvegicus [3] and in the assay filed under Rattus norvegicus [4] was greater than 3 mg/kg each time.
At Adenosine receptor A1, `C[C@H](Cc1ccccc1)Nc1ncnc2c1ncn2[C@H]1C[C@H](O)[C@@H](CO)O1` displayed a Ki of 1.9 µM. Besides, the LAD in the assay filed under Mus musculus [1] and in the assay listed under Mus musculus [2] was greater than 30 mg/kg throughout.
For the compound `C[C@H](Cc1ccccc1)Nc1ncnc2c1ncn2[C@@H]1O[C@H](CO)C[C@H]1O`, the Ki on Adenosine receptor A1 amounted to 0.029 µM; at Adenosine A2 receptor, 6.9 µM. The LAD in the assay filed under Mus musculus [1] and in the assay listed under Mus musculus [2] was 100 mg/kg in each case. Further, the ED20 in the assay filed under Rattus norvegicus [3] stood at 0.8 mg/kg; in the assay listed under Rattus norvegicus [4], 0.4 mg/kg.
Regarding `C[C@H](Cc1ccccc1)Nc1ncnc2c1ncn2C1O[C@H](CCl)[C@@H](O)[C@H]1O` (stereo not given in full), the results for the Ki on Adenosine receptor A1 and at Adenosine A2 receptor were 0.0016 µM and 1.9 µM, respectively. The figures for the LAD in the assay listed under Mus musculus [1] and in the assay filed under Mus musculus [2] were 100 mg/kg and 10 mg/kg, respectively. For the same compound, the ED20 in the assay listed under Rattus norvegicus [3] came to 0.1 mg/kg; in the assay listed under Rattus norvegicus [4], 0.08 mg/kg.
Turning to `C[C@H](Cc1ccccc1)Nc1ncnc2c1ncn2CC(O)C(O)C(O)CO` (stereo not given in full), the Ki is greater than 2.2 µM at Adenosine receptor A1 and greater than 100 µM on Adenosine A2 receptor. Besides, the LAD in the assay listed under Mus musculus [1] and in the assay filed under Mus musculus [2] was greater than 100 mg/kg throughout. The values for the ED20 in the assay listed under Rattus norvegicus [3] and in the assay listed under Rattus norvegicus [4] were 10 mg/kg and greater than 10 mg/kg, respectively.
As for `C[C@H](Cc1ccccc1)Nc1ncnc2c1ncn2C[C@H](O)CO`, the Ki at Adenosine receptor A1 and on Adenosine A2 receptor was greater than 10 µM each time. The LAD in the assay filed under Mus musculus [1] and in the assay filed under Mus musculus [2] was greater than 100 mg/kg each time.
`C[C@H](Cc1ccccc1)Nc1ncnc2c1ncn2C1OC[C@](O)(CO)[C@H]1O` (stereo not given in full): the Ki is greater than 10 µM on Adenosine receptor A1 and greater than 50 µM on Adenosine A2 receptor.
For the compound `C[C@H](Cc1ccccc1)Nc1ncnc2c1ncn2[C@@H]1O[C@@H](CO)[C@@H](O)[C@H]1O`, the LAD in the assay filed under Mus musculus [1] and in the assay listed under Mus musculus [2] was greater than 100 mg/kg throughout. Besides, the ED20 in the assay filed under Rattus norvegicus [3] and in the assay filed under Rattus norvegicus [4] was greater than 10 mg/kg throughout.
Regarding `CSC[C@H]1OC(n2cnc3c(N[C@H](C)Cc4ccccc4)ncnc32)[C@H](O)[C@@H]1O` (stereo not given in full), the figures for the inhibition constant Ki at Adenosine receptor A1 and on Adenosine A2 receptor were 0.029 µM and 56 µM, respectively. Also, the LAD in the assay listed under Mus musculus [1] and in the assay filed under Mus musculus [2] was greater than 100 mg/kg throughout. The ED20 in the assay filed under Rattus norvegicus [3] turned out to be 0.023 mg/kg; in the assay listed under Rattus norvegicus [4] it was 3 mg/kg.
Turning to `C[C@H](Cc1ccccc1)Nc1ncnc2c1ncn2COCCO`, the affinity at Adenosine receptor A1, expressed as Ki, was 68 µM. Besides, the LAD in the assay filed under Mus musculus [1] and in the assay filed under Mus musculus [2] was greater than 30 mg/kg in each case.
As to `C[C@H](Cc1ccccc1)Nc1ncnc2c1ncn2C1CCCCO1` (stereo not given in full), the inhibitory constant (Ki) at Adenosine receptor A1 came to 1.2 µM; at Adenosine A2 receptor, 38 µM. In addition, the LAD in the assay filed under Mus musculus [1] was greater than 100 mg/kg; in the assay filed under Mus musculus [2], 100 mg/kg.
Take `C[C@H](Cc1ccccc1)Nc1ncnc2c1ncn2C(CO)OC(O)CO` (stereo not given in full): the inhibition constant (Ki) on Adenosine receptor A1 and on Adenosine A2 receptor was greater than 10 µM throughout. Besides, the LAD in the assay filed under Mus musculus [1] and in the assay filed under Mus musculus [2] was greater than 100 mg/kg each time. Also, the ED20 was 0.9 mg/kg in the assay filed under Rattus norvegicus [3] and greater than 10 mg/kg in the assay filed under Rattus norvegicus [4].
As to `C[C@H](Cc1ccccc1)Nc1ncnc2c1ncn2C1CCCO1` (stereo not given in full), the Ki on Adenosine receptor A1 is 1.5 µM; at Adenosine A2 receptor, 8.2 µM. The LAD in the assay listed under Mus musculus [1] and in the assay filed under Mus musculus [2] was greater than 100 mg/kg throughout. For the same compound, the ED20 in the assay listed under Rattus norvegicus [3] and in the assay filed under Rattus norvegicus [4] was greater than 3 mg/kg in each case.
On to `C[C@H](Cc1ccccc1)Nc1ncnc2c1ncn2C[C@@H](O)CO`, for which the inhibition constant (Ki) at Adenosine receptor A1 and on Adenosine A2 receptor was greater than 10 µM in each case. Besides, the LAD in the assay listed under Mus musculus [1] and in the assay listed under Mus musculus [2] was greater than 100 mg/kg each time. For the same compound, the ED20 in the assay filed under Rattus norvegicus [3] and in the assay listed under Rattus norvegicus [4] was greater than 10 mg/kg throughout.
Consider `C[C@H](Cc1ccccc1)Nc1ncnc2c1ncn2C1O[C@H](C)[C@@H](O)[C@H]1O` (stereo not given in full), for which the values for the inhibition constant Ki on Adenosine receptor A1 and on Adenosine A2 receptor were 0.025 µM and 3.3 µM, respectively. Further, the values for the LAD in the assay filed under Mus musculus [1] and in the assay filed under Mus musculus [2] were 100 mg/kg and 30 mg/kg, respectively. Moreover, the values for the ED20 in the assay filed under Rattus norvegicus [3] and in the assay filed under Rattus norvegicus [4] were 0.05 mg/kg and greater than 0.3 mg/kg, respectively.
For `C[C@H](Cc1ccccc1)Nc1ncnc2c1ncn2C1OCC(O)C(O)C1O` (stereo not given in full), the Ki at Adenosine receptor A1 was 5.7 µM; at Adenosine A2 receptor, greater than 100 µM.
Regarding `C[C@H](Cc1ccccc1)Nc1[nH]cnc2ncnc1-2`, the values for the inhibitory constant (Ki) at Adenosine receptor A1 and at Adenosine A2 receptor were 9.6 µM and 39 µM, respectively. The LAD in the assay listed under Mus musculus [1] and in the assay listed under Mus musculus [2] was 100 mg/kg each time. Further, the ED20 in the assay filed under Rattus norvegicus [3] is 8 mg/kg; in the assay listed under Rattus norvegicus [4], greater than 10 mg/kg.
Take `C[C@H](Cc1ccccc1)Nc1ncnc2c1ncn2[C@@H]1O[C@H](CO)[C@@H](O)[C@H]1O` [(R)-PIA]: the LAD in the assay listed under Mus musculus [1] came to 3 mg/kg; in the assay listed under Mus musculus [2], 1 mg/kg. Besides, the ED20 in the assay filed under Rattus norvegicus [5] came to 0.006 mg/kg.
